Our source for the inhibition values is PMC11643494, “Structure–Activity Relationship Studies in a Series of 2-Aryloxy-N-(pyrimidin-5-yl)acetamide Inhibitors of SLACK Potassium Channels” (Molecules, 2024).

The test addresses T1, CaV3.2 (Homo sapiens, UniProt O95180).
T1 construct: expressed in transfected cells; host or cells: HEK293
In words: Tl+-flux assay in HEK-293 cells, CaV3.2. Type of test: cell-based. As to conditions: HEK293; 10 µM test compound; relative to control bepridil; read-out: Percent Inhibition ± SEM, CaV3.2. From the text:
Having executed our plan to prepare analogs across the identified regions of the chemotype (Figure 2), we identified two analogs for further profiling and evaluation. […] Desiring to add a second compound with some measure of structural differences, we also chose another submicromolar SLACK inhibitor 66 (VU0936154). Whereas 40 contains an ether linker and a halogenated phenyl group in the eastern region, […] contains an N-methyl linker and a phenyl group with a more polar cyano substituent. We first screened these analogs at 10 µM versus our in-house panel of ion channel targets using Tl^+-flux assays in HEK-293 cells expressing the human target of interest. […] Included in this set are Slo family members SLICK and two isoforms of Maxi-K, as well as several different K^+, Na^+, and Ca^2+ channels (Table 6). […] Of note was the excellent selectivity versus the broader panel of targets for both compounds, including versus the hERG channel.
Stably transfected monoclonal HEK293 cell lines expressing SLICK, Maxi-K α1/β3, Maxi-K α1/β4, CaV3.2, GIRK 1/2, KV2.1, KV7.2, NaV1.7, and TASK-1 were generated as previously described. […]
The Tl^+ flux assays were conducted as previously described, with modifications optimized for individual cell lines as described below. […] Cell plates were then loaded onto a Panoptic kinetic imaging plate reader (WaveFront Biosciences, Franklin, TN, USA). […]

T1 sequence (O95180 whole entry): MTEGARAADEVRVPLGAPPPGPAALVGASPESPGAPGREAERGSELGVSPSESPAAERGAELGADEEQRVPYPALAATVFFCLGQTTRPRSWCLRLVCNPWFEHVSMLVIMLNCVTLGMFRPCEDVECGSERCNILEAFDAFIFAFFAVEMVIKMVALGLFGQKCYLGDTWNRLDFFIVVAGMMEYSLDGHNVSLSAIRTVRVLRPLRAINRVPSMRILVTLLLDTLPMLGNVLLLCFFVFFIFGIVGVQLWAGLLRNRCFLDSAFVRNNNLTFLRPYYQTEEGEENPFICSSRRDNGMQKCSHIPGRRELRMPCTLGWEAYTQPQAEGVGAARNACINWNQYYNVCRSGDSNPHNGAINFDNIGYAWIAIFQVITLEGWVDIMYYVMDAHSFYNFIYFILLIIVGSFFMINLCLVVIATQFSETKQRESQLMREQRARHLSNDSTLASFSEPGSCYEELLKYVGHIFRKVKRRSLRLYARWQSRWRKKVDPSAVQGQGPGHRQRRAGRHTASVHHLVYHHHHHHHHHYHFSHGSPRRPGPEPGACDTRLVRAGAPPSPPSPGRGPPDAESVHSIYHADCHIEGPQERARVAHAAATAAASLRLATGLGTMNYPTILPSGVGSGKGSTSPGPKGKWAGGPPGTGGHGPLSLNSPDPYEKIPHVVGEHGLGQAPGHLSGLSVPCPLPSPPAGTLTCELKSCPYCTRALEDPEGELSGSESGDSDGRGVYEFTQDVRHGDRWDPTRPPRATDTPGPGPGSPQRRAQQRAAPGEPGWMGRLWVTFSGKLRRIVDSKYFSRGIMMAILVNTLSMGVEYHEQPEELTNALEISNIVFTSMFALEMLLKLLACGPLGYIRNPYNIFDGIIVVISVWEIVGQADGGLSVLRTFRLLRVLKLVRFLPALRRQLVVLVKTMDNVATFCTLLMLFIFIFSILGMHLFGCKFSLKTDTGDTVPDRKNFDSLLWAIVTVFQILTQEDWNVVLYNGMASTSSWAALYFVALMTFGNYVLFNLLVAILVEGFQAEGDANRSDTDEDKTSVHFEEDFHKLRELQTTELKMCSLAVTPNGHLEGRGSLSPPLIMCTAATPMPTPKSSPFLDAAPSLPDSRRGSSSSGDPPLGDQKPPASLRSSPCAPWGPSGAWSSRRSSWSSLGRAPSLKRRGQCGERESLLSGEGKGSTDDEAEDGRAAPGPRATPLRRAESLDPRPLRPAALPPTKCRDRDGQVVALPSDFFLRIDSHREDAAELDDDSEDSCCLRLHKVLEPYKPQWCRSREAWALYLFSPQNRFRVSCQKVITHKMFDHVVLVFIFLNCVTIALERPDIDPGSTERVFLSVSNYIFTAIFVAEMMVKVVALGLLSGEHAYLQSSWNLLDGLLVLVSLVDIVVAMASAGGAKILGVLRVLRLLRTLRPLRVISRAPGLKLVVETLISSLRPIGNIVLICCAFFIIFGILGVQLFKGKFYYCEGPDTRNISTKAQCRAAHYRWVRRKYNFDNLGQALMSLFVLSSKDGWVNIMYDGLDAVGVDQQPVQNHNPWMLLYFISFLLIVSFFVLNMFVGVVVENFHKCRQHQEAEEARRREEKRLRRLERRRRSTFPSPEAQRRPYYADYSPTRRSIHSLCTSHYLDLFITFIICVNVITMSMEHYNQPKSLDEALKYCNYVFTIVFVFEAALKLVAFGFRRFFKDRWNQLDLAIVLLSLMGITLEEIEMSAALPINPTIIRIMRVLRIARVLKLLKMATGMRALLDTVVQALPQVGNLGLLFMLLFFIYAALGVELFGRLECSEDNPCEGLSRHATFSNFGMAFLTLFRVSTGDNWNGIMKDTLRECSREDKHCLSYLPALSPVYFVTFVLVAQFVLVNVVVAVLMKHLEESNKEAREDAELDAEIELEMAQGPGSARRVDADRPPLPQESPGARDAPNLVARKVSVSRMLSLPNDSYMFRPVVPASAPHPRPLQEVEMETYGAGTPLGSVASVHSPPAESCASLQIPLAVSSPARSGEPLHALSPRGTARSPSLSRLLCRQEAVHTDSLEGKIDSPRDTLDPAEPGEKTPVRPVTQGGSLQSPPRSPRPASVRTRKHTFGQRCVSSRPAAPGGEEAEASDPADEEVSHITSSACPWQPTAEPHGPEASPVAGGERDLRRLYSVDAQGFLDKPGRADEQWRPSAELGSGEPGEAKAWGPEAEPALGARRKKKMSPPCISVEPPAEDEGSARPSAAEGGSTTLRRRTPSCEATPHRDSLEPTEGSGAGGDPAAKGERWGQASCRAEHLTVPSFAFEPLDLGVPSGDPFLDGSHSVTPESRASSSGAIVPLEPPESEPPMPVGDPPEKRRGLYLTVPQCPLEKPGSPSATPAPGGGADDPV

Usually inhibition stands for the share of the control response that was lost under treatment. Turning to `CC(C)(Oc1ccc(Cl)cc1)C(=O)Nc1cnc(Oc2c(F)cccc2F)nc1` [Analog 40], the inhibition at 10 µM came out at 10 ± 0.82%.
To `CN(c1ccc(C#N)cc1)c1ncc(NC(=O)C(C)(C)Oc2ccc(Cl)cc2)cn1` [Analog 66] belongs 32 ± 2.4%.
